US8318424B2, “High-throughput RNA structure analysis” (The University of North Carolina at Chapel Hill, priority 2006, dated 2012)

Tests used:
[1] = Reagent hydrolysis followed by UV absorbance of the aminobenzoate product; assay type: physicochemical
Experimental: One (1) μL NMIA in DMSO was added to the (+) NMIA tube and 1 μL neat DMSO was added to the (−) NMIA tube. The tubes were then mixed well. The reaction was incubated for 5 NMIA hydrolysis half-lives. To estimate the NMIA half-life between 15° C. and 75° C., the following equation was used: half life(minutes)=360×exp[−0.102×temperature(° C.)]. […] Thus, at 37° C., the reaction was incubated for about 45 minutes.
(§1) Hydrolysis was followed by adding (1.5 mM NMIA or 2.0 mM 1M7 in 300 μL DMSO) reagent to 1.1× buffer (2.7 mL, 6.7 mM MgCl2, 111 mM NaCl, 111 mM HEPES (pH 8.0)) equilibrated at 37° C. in a cuvette. Pseudo-first-order rates were obtained by monitoring the absorbance of the hydrolysis product (at 360 nm for 2-methylaminobenzoate and 430 nm for 2-methylamino-4-nitrobenzoate). Rates of adduct formation for [^32P]-labeled pAp-ethyl (10,000 cpm/μL) were obtained by adding 10% (v/v) reagent (5 mM final NMIA or 1M7 in DMSO) to 1.1× reaction buffer, quenching the reaction with 1 vol 250 mM dithiothreitol, resolving by gel electrophoresis (30% polyacrylamide; 29:1 acrylamide:bisacrylamide; 0.4 mm×28.5 cm×23 cm; 30 W; 45 minutes), and quantifying by phosphorimaging. Reaction rates were obtained using an equation that accounts for parallel reaction of NMIA or 1M7 by 2′-O-adduct formation (kadduct) and by hydrolysis (khydrolysis): fraction product=1−exp[(kadduct[reagent]/khydrolysis)(e^−(khydrolysis)t−1)]. Synthesis of Bacillus subtilis RNase P RNA
The reagent hydrolysis was monitored as the increase in UV absorbance of the aminobenzoate products. […] In contrast, NMIA required over 20 minutes to react to completion (FIG. 5).

pAp-ethyl = assay: 2′-O-adduct formation with [32P]-labeled pAp-ethyl; conditions: for change in rate of reaction with pAp-ethyl from 0 to 20 mM Mg2+: 0 to 20 mM Mg2+ (FIG. 6)
Experimental: as §1
The ability of each compound to react with 3′-phosphoethyl-5′-adenosine monophosphate (pAp-ethyl) was then evaluated. pAp-ethyl contains a 2′-hydroxyl and 3′-phosphodiester monoanion.

NCp7-RNA interactions = target: T1, NCp7-RNA interactions (Human immunodeficiency virus type 1 group M subtype B, UniProt P12493); assay: AT-2 treatment of HIV-1 virions analyzed by hSHAPE; conditions: in virio compared with AT-2 treated virions
T1 construct: expressed in transfected cells; host or cells: 293T cells cotransfected with pNL4-3 and pHCMV-G; the protein sits in the released virus particles
Text: The most prominent protein ligand for genomic RNA in mature HIV virions is the nucleocapsid protein. The nucleocapsid protein (NCp7) contains two highly conserved zinc-knuckle motifs comprised of cysteine and histidine residues that coordinate zinc ions and bind preferentially to guanosine. These compact motifs are flanked by positively charged residues that interact at adjacent RNA elements. Zinc ejecting agents such as 2,2′-dithioldipyridine (or AT-2) quantitatively disrupt interactions between the zinc ion and its cysteine ligands to compromise NCp7-RNA interactions, but leave the surface of the virus particle intact. Nucleocapsid-RNA interactions were disrupted in situ by treating virions with AT-2. The resulting genomic RNA was analyzed using hSHAPE.
Aldrithiol-2 (AT-2, systematic name 2,2′-dithiodipyridine; 0.5 M in DMSO, 2.0 mL) or DMSO (2.0 mL) was added to 1.0 L virus supernatant and incubated overnight at 4° C. Virus particles from the (+) and (−) AT-2 experiments were pelleted separately by centrifugation (110,000 g, 4° C., 1.5 hours) through a 20% (w/v) sucrose cushion in phosphate buffered saline. Pellets were resuspended in 1.0 mL NMIA reaction buffer (50 mM Hepes (pH 8), 200 mM NaCl, 0.1 mM EDTA, and 10% fetal bovine serum). […]

retroviral membrane = assay: NMIA modification of genomic RNA inside HIV-1 viral particles
Experimental: The structure of HIV-1 genomic RNA inside infectious virions was analyzed by treating viral particles with NMIA and then extracting and processing the modified RNA (the in virio state). Numerous reproducible differences between the ex virio and in virio states were observed that report virion-specific RNA structures and RNA-protein interactions.
Concentrated samples of either purified viral particles or particles treated with AT-2 (500 μL) in NMIA reaction buffer were treated with NMIA (50 μL, 100 mM) or neat DMSO (50 μL) for 50 minutes at 37° C. The virus particle production, AT-2 treatment, and NMIA modification steps were performed as a single continuous process and without intermediate storage steps.

[2] = Solubility of reagent stock in DMSO; assay type: physicochemical; conditions: organic solvent or mixture; 10× stock in DMSO; read-out: stock concentration limit due to solubility of the reagent
Experimental: The concentration of this solution can vary with RNA length. For RNA reads of 100, 200 and 300 nucleotides, 10×NMIA concentrations of 130, 65 and 30 mM, can be used.

| Compound | time until reaction is complete ([1]; 37° C., pH 8.0 buffer) | half-life at 0.2 mM ([1]; HEPES buffer with 10% DMSO, 37° C., pH 8.0 buffer, 10% DMSO) [min] | dependence of hydrolysis on Mg2+ concentration ([1]; control experiments) | increase in rates of hydrolysis and of 2′-hydroxyl acylation relative to NMIA (pAp-ethyl) [fold] | change in rate of reaction with pAp-ethyl from 0 to 20 mM Mg2+ (pAp-ethyl) | rate of reaction with pAp-ethyl, compared with NMIA (pAp-ethyl; 5 mM reagent) | specificity of the effect of AT-2 treatment on SHAPE reactivity of genomic RNA (NCp7-RNA interactions) | passage across the retroviral membrane (retroviral membrane) | time required to react to completion ([1]; 37° C., pH 8.0 buffer) | half-life ([1]; pH 8, 37° C., from half life = 360×exp[−0.102×temperature], read-out: NMIA hydrolysis half-life) [min] | solubility [2] [mM] |
| --- | --- | --- | --- | --- | --- | --- | --- | --- | --- | --- | --- |
| Cn1c(=O)oc(=O)c2ccc([N+](=O)[O-])cc21 [1M7, 1-methyl-7-nitroisatoic anhydride] | about 70 seconds | 0.233 | independent of Mg^2+ concentration | 20 | negligible | significantly more rapidly |  |  |  |  |  |
| c1ccc(SSc2ccccn2)nc1 [AT-2, 2,2′-dithiodipyridine] |  |  |  |  |  |  | highly specific |  |  |  |  |
| Cn1c(=O)oc(=O)c2ccccc21 [NMIA, N-methylisatoic anhydride] |  |  |  |  | greater than 2 fold |  |  | readily crosses the retroviral membrane | over 20 minutes | 8.3 | ≤ 130 |
